{
  "source": "patent US12186284B2",
  "about": "“Antimicrobial formulations for the treatment of veterinary hoof infections” (Provita Eurotech Ltd, priority 2016, dated 2025)",
  "key": {"[1]": {"system": "Escherichia coli (NCTC12241)", "assay": "Rate of kill assay based on BS EN 1276:1997, clean and dirty conditions", "type": "cell-based", "conditions": "3× MIC (0.375% v/v; CS 0.15% w/v)", "from_the_text": "The rate of kill assay is based on the British and European standard test conditions BS EN 1276:1997.\nThe initial inoculum of microorganism ranged between 10^6-10^7 colony forming units per mL."}, "[2]": {"system": "Escherichia coli (NCTC12241)", "assay": "Minimum inhibitory concentration (MIC)", "type": "cell-based", "conditions": "three times the minimum inhibitory concentration"}},
  "data": [
    {"molecule": "O=S(=O)([O-])[O-].[Cu+2]", "note": "[CS, copper sulphate]", "values": [
      {"measurement": "Surviving Bacterial Count (cfu/mL) under clean and dirty conditions", "setting": "[1]; contact time 0 s, clean (no bovine albumin)", "result": "3.2 × 10^6 cfu/mL"},
      {"measurement": "Surviving Bacterial Count (cfu/mL) under clean and dirty conditions", "setting": "[1]; contact time 0 s, dirty (0.3% bovine albumin)", "result": "1.4 × 10^7 cfu/mL"},
      {"measurement": "Surviving Bacterial Count (cfu/mL) under clean and dirty conditions", "setting": "[1]; contact time 30 s, clean (no bovine albumin)", "result": "1.7 × 10^6 cfu/mL"},
      {"measurement": "Surviving Bacterial Count (cfu/mL) under clean and dirty conditions", "setting": "[1]; contact time 30 s, dirty (0.3% bovine albumin)", "result": "1.1 × 10^7 cfu/mL"},
      {"measurement": "Surviving Bacterial Count (cfu/mL) under clean and dirty conditions", "setting": "[1]; contact time 60 s, clean (no bovine albumin)", "result": "6.2 × 10^5 cfu/mL"},
      {"measurement": "Surviving Bacterial Count (cfu/mL) under clean and dirty conditions", "setting": "[1]; contact time 60 s, dirty (0.3% bovine albumin)", "result": "9.7 × 10^6 cfu/mL"},
      {"measurement": "Surviving Bacterial Count (cfu/mL) under clean and dirty conditions", "setting": "[1]; contact time 120 s, clean (no bovine albumin)", "result": "3.3 × 10^5 cfu/mL"},
      {"measurement": "Surviving Bacterial Count (cfu/mL) under clean and dirty conditions", "setting": "[1]; contact time 120 s, dirty (0.3% bovine albumin)", "result": "5.2 × 10^6 cfu/mL"},
      {"measurement": "Surviving Bacterial Count (cfu/mL) under clean and dirty conditions", "setting": "[1]; contact time 300 s, clean (no bovine albumin)", "result": "5.0 × 10^3 cfu/mL"},
      {"measurement": "Surviving Bacterial Count (cfu/mL) under clean and dirty conditions", "setting": "[1]; contact time 300 s, dirty (0.3% bovine albumin)", "result": "3.2 × 10^4 cfu/mL"},
      {"measurement": "3MIC", "setting": "[2]", "result": 0.15, "unit": "%"}
    ]}
  ]
}
